The values below come from patent US11076595B2, “1-(n,n-disubstituted carbamoyl) 4-(substituted sulfonyl)triazolin-5-one derivative, 4-(n,n-disubstituted carbamoyl) 1-(substituted sulfonyl)triazolin-5-one derivative, and herbicide containing said derivative as active ingredient” (HOKKO CHEMICAL INDUSTRY CO., LTD., priority 2017, dated 2021).

The structures appear in SMILES notation.

What all share (type): in vivo
Test [1] relates to Lindernia pyxidaria. As to the kind of experiment: Test Example 12: herbicidal effect test by treatment during growing period in paddy field. The note with it: 120 g/10a; treatment seven days after sowing in flooded paddy pot; assessed 14 days after treatment. The essentials:
(§1)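 Seeds (30 per species) are sown shallowly into fertilized, puddled paddy soil kept under ~3 cm of water in a greenhouse. One week later, compound formulated as an emulsifiable concentrate is applied dropwise to the water at 120 g a.i./10 are. After 14 days, dry weights give percent suppression against untreated controls.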

In test [2] the test system is Echinochloa crus-galli. The description is as above. As to conditions: 120 g/10a; treatment seven days after sowing in flooded paddy pot; assessed 14 days after treatment. The essentials: as §1
Test [3] deals with Monochoria vaginalis. The description is as above. As to conditions: 120 g/10a; treatment seven days after sowing in flooded paddy pot; assessed 14 days after treatment. Put shortly:
as §1

Test [4] has as its system Scirpus juncoides. The description is as above. The note with it: 120 g/10a; treatment seven days after sowing in flooded paddy pot; assessed 14 days after treatment. The essentials: as §1
Test [5] concerns Lindernia pyxidaria. Kind of test: Test Example 11: herbicidal effect test by soil treatment in paddy field. As to conditions: 120 g/10a active ingredient, 14 days after treatment. Put shortly: (§2)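 Pre-emergence flooded-paddy test: the water-diluted emulsifiable concentrate, 120 g active ingredient per 10 are, was dripped into pots immediately after seeding, with water held at about 3 cm. Two replicate pots per rate; 14 days after treatment, plant dry weight versus untreated pots gave the weed suppression rate.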

Test [6] concerns Echinochloa crus-galli. Described as above. The note with it: 120 g/10a active ingredient, 14 days after treatment. Put shortly:
as §2

Test [7] has as its system Monochoria vaginalis. The test is described as above. The note with it: 120 g/10a active ingredient, 14 days after treatment. Put shortly: as §2
In test [8] the test system is Scirpus juncoides. The description is as above. As to conditions: 120 g/10a active ingredient, 14 days after treatment. The essentials: as §2

As to `COc1ccc(S(=O)(=O)n2ncn(C(=O)N(c3c(F)cccc3F)C(C)C)c2=O)cc1` [Compound 11-1151], the “Weed suppression rate (%) Lindemia pyxidaria” value came out at 80% in the test on Lindernia pyxidaria [1] and 100% in the test with Lindernia pyxidaria [5]. Besides, the “Weed suppression rate (%) Echinochloa crus-galli” value in the test on Echinochloa crus-galli [2] and in the test on Echinochloa crus-galli [6] was 100% each time. The “Weed suppression rate (%) Monochoria vaginalis” value in the test on Monochoria vaginalis [3] is listed as 90%; in the test on Monochoria vaginalis [7], 70%. Further, the entries for the “Weed suppression rate (%) Scirpus juncoides” value in the test with Scirpus juncoides [4] and with Scirpus juncoides [8] were 90% and 80%, respectively.

Turning to `CCS(=O)(=O)n1ncn(C(=O)N(C)c2ccc(F)cc2F)c1=O` [Compound 11-1126], the “Weed suppression rate (%) Lindemia pyxidaria” value was determined as 70% in the test with Lindernia pyxidaria [1] and 90% in the test with Lindernia pyxidaria [5]. The “Weed suppression rate (%) Echinochloa crus-galli” value in the test with Echinochloa crus-galli [2] and in the test on Echinochloa crus-galli [6] was 100% throughout. Besides, the “Weed suppression rate (%) Monochoria vaginalis” value in the test with Monochoria vaginalis [3] and with Monochoria vaginalis [7] was 70% each time. The “Weed suppression rate (%) Scirpus juncoides” value in the test with Scirpus juncoides [4] and with Scirpus juncoides [8] was 100% each time.

Regarding `Cc1cc(F)ccc1N(C(=O)n1cnn(S(=O)(=O)c2cccc(Cl)c2)c1=O)C(C)C` [Compound 11-563], the “Weed suppression rate (%) Lindemia pyxidaria” value in the test on Lindernia pyxidaria [1] came to 80%; with Lindernia pyxidaria [5], 100%. The “Weed suppression rate (%) Echinochloa crus-galli” value with Echinochloa crus-galli [2] and in the test with Echinochloa crus-galli [6] was 100% in each case. In addition, the “Weed suppression rate (%) Monochoria vaginalis” value with Monochoria vaginalis [3] is listed as 80%; in the test with Monochoria vaginalis [7], 90%. For the same compound, the “Weed suppression rate (%) Scirpus juncoides” value in the test with Scirpus juncoides [4] and with Scirpus juncoides [8] was 100% throughout.

Consider `Cc1cc(C)c(S(=O)(=O)n2ncn(C(=O)N(c3c(F)cc(F)cc3F)C(C)C)c2=O)c(C)c1` [Compound 11-867], for which the “Weed suppression rate (%) Lindemia pyxidaria” value amounted to 70% in the test with Lindernia pyxidaria [1] and 100% in the test on Lindernia pyxidaria [5]. Besides, the “Weed suppression rate (%) Echinochloa crus-galli” value in the test on Echinochloa crus-galli [2] and in the test on Echinochloa crus-galli [6] was 100% in each case. The “Weed suppression rate (%) Monochoria vaginalis” value with Monochoria vaginalis [3] and in the test with Monochoria vaginalis [7] was 80% in each case. Besides, the “Weed suppression rate (%) Scirpus juncoides” value in the test with Scirpus juncoides [4] and in the test with Scirpus juncoides [8] was 80% each time.

With `CC(C)N(C(=O)n1cnn(S(C)(=O)=O)c1=O)c1cccc(F)c1` [Compound 11-3], the “Weed suppression rate (%) Lindemia pyxidaria” value with Lindernia pyxidaria [1] and in the test with Lindernia pyxidaria [5] was 80% each time. In addition, the “Weed suppression rate (%) Echinochloa crus-galli” value in the test on Echinochloa crus-galli [2] and in the test with Echinochloa crus-galli [6] was 90% each time. In addition, the “Weed suppression rate (%) Monochoria vaginalis” value in the test on Monochoria vaginalis [3] and in the test on Monochoria vaginalis [7] was 80% in each case. In addition, the “Weed suppression rate (%) Scirpus juncoides” value in the test on Scirpus juncoides [4] and with Scirpus juncoides [8] was 90% throughout.

On to `Cc1cc(N(C(=O)n2cnn(S(=O)(=O)C(C)C)c2=O)C(C)C)no1` [Compound 11-91], for which the “Weed suppression rate (%) Lindemia pyxidaria” value with Lindernia pyxidaria [1] and in the test with Lindernia pyxidaria [5] was 80% in each case. Besides, the “Weed suppression rate (%) Echinochloa crus-galli” value with Echinochloa crus-galli [2] and in the test on Echinochloa crus-galli [6] was 90% in each case. In addition, the “Weed suppression rate (%) Monochoria vaginalis” value in the test on Monochoria vaginalis [3] and in the test on Monochoria vaginalis [7] was 80% each time. In addition, the “Weed suppression rate (%) Scirpus juncoides” value with Scirpus juncoides [4] and in the test on Scirpus juncoides [8] was 90% throughout.

As to `CC(C)N(C(=O)n1cnn(S(=O)(=O)c2ccccc2)c1=O)c1ccc(Cl)cc1` [Compound 11-361], the “Weed suppression rate (%) Lindemia pyxidaria” value in the test with Lindernia pyxidaria [1] and with Lindernia pyxidaria [5] was 80% in each case. Besides, the “Weed suppression rate (%) Echinochloa crus-galli” value in the test on Echinochloa crus-galli [2] and in the test on Echinochloa crus-galli [6] was 90% each time. The “Weed suppression rate (%) Monochoria vaginalis” value in the test with Monochoria vaginalis [3] and in the test with Monochoria vaginalis [7] was 80% each time. In addition, the “Weed suppression rate (%) Scirpus juncoides” value in the test on Scirpus juncoides [4] and in the test with Scirpus juncoides [8] was 90% each time.

For the compound `O=C(N(CC(F)(F)F)c1ccc(F)cc1F)n1cnn(S(=O)(=O)C2CCCCC2)c1=O` [Compound 11-1156], the “Weed suppression rate (%) Lindemia pyxidaria” value with Lindernia pyxidaria [1] turned out to be 90%; in the test with Lindernia pyxidaria [5], 80%. For the same compound, the “Weed suppression rate (%) Echinochloa crus-galli” value was 90% in the test on Echinochloa crus-galli [2] and 70% in the test with Echinochloa crus-galli [6]. The “Weed suppression rate (%) Monochoria vaginalis” value was 60% with Monochoria vaginalis [3] and 30% in the test on Monochoria vaginalis [7]. Moreover, the “Weed suppression rate (%) Scirpus juncoides” value in the test on Scirpus juncoides [4] and in the test with Scirpus juncoides [8] was 30% each time.

In the case of `Cc1ccc(S(=O)(=O)n2ncn(C(=O)N(c3ccc(Cl)cc3F)C(C)C)c2=O)cc1` [Compound 11-645], the “Weed suppression rate (%) Lindemia pyxidaria” value in the test with Lindernia pyxidaria [1] and with Lindernia pyxidaria [5] was 90% in each case. For the same compound, the “Weed suppression rate (%) Echinochloa crus-galli” value is listed as 60% in the test on Echinochloa crus-galli [2] and 100% with Echinochloa crus-galli [6]. Further, the “Weed suppression rate (%) Monochoria vaginalis” value with Monochoria vaginalis [3] and in the test on Monochoria vaginalis [7] was 90% throughout. The “Weed suppression rate (%) Scirpus juncoides” value amounted to 60% in the test with Scirpus juncoides [4] and 90% in the test with Scirpus juncoides [8].

On to `CC(C)N(C(=O)n1cnn(S(=O)(=O)c2ccc(Cl)cc2)c1=O)c1ccc(Cl)cn1` [Compound 11-612], for which the entries for the “Weed suppression rate (%) Lindemia pyxidaria” value in the test on Lindernia pyxidaria [1] and in the test on Lindernia pyxidaria [5] were 90% and 100%, respectively. For the same compound, the “Weed suppression rate (%) Echinochloa crus-galli” value is reported as 80% in the test with Echinochloa crus-galli [2] and 100% with Echinochloa crus-galli [6]. In addition, the “Weed suppression rate (%) Monochoria vaginalis” value in the test on Monochoria vaginalis [3] and in the test with Monochoria vaginalis [7] was 70% in each case. Moreover, the “Weed suppression rate (%) Scirpus juncoides” value in the test with Scirpus juncoides [4] was 90%; in the test with Scirpus juncoides [8] it was 70%.

Consider `Cc1ccc(S(=O)(=O)n2ncn(C(=O)N(c3ccc(C)cc3F)C(C)C)c2=O)cc1` [Compound 11-651], for which the “Weed suppression rate (%) Lindemia pyxidaria” value is reported as 80% in the test on Lindernia pyxidaria [1] and 90% with Lindernia pyxidaria [5]. Besides, the “Weed suppression rate (%) Echinochloa crus-galli” value with Echinochloa crus-galli [2] and in the test on Echinochloa crus-galli [6] was 90% throughout. Further, the “Weed suppression rate (%) Monochoria vaginalis” value in the test on Monochoria vaginalis [3] is on record as 80%; in the test on Monochoria vaginalis [7], 90%. The “Weed suppression rate (%) Scirpus juncoides” value with Scirpus juncoides [4] and in the test on Scirpus juncoides [8] was 90% throughout.

For the compound `CC(C)N(C(=O)n1cnn(S(=O)(=O)c2ccc(F)cc2)c1=O)c1c(F)c(F)cc(F)c1F` [Compound 11-480], the “Weed suppression rate (%) Lindemia pyxidaria” value with Lindernia pyxidaria [1] was 80%; in the test with Lindernia pyxidaria [5] it was 90%. In addition, the “Weed suppression rate (%) Echinochloa crus-galli” value with Echinochloa crus-galli [2] and in the test on Echinochloa crus-galli [6] was 100% each time. The “Weed suppression rate (%) Monochoria vaginalis” value with Monochoria vaginalis [3] was found to be 70%; in the test on Monochoria vaginalis [7] it was 80%. For the same compound, the “Weed suppression rate (%) Scirpus juncoides” value with Scirpus juncoides [4] is on record as 100%; in the test on Scirpus juncoides [8], 90%.

For `CC(C)N(C(=O)n1cnn(S(=O)(=O)c2cccc(Cl)c2)c1=O)c1c(F)cc(F)cc1F` [Compound 11-554], the “Weed suppression rate (%) Lindemia pyxidaria” value in the test on Lindernia pyxidaria [1] amounted to 80%; in the test on Lindernia pyxidaria [5] it was 90%. Moreover, the “Weed suppression rate (%) Echinochloa crus-galli” value with Echinochloa crus-galli [2] is 80%; with Echinochloa crus-galli [6] it was 100%. Besides, the “Weed suppression rate (%) Monochoria vaginalis” value is reported as 80% in the test with Monochoria vaginalis [3] and 70% in the test on Monochoria vaginalis [7]. For the same compound, the “Weed suppression rate (%) Scirpus juncoides” value in the test on Scirpus juncoides [4] was 90%; in the test with Scirpus juncoides [8], 70%.

For `CC(C)N(C(=O)n1cnn(S(=O)(=O)C2CC2)c1=O)c1ccc(C(F)(F)F)cc1Cl` [Compound 11-220], the “Weed suppression rate (%) Lindemia pyxidaria” value in the test on Lindernia pyxidaria [1] and in the test on Lindernia pyxidaria [5] was 90% throughout. In addition, the “Weed suppression rate (%) Echinochloa crus-galli” value in the test on Echinochloa crus-galli [2] is 90%; with Echinochloa crus-galli [6], 100%. The “Weed suppression rate (%) Monochoria vaginalis” value in the test on Monochoria vaginalis [3] is recorded as 90%; in the test with Monochoria vaginalis [7], 60%. Also, the “Weed suppression rate (%) Scirpus juncoides” value is 80% with Scirpus juncoides [4] and 90% in the test with Scirpus juncoides [8].

Take `Cc1cc(C)c(S(=O)(=O)n2ncn(C(=O)N(c3ccc(F)cc3)C(C)C)c2=O)c(C)c1` [Compound 11-855]: the “Weed suppression rate (%) Lindemia pyxidaria” value in the test on Lindernia pyxidaria [1] was 60%; in the test with Lindernia pyxidaria [5], 90%. The results for the “Weed suppression rate (%) Echinochloa crus-galli” value in the test with Echinochloa crus-galli [2] and in the test with Echinochloa crus-galli [6] were 80% and 100%, respectively. Moreover, the “Weed suppression rate (%) Monochoria vaginalis” value came to 80% in the test with Monochoria vaginalis [3] and 90% in the test with Monochoria vaginalis [7]. Also, the “Weed suppression rate (%) Scirpus juncoides” value in the test on Scirpus juncoides [4] was found to be 80%; in the test on Scirpus juncoides [8], 90%.

Turning to `CC(C)N(C(=O)n1cnn(S(=O)(=O)c2cccs2)c1=O)c1ccc(F)cc1` [Compound 11-1014], the “Weed suppression rate (%) Lindemia pyxidaria” value worked out at 80% in the test on Lindernia pyxidaria [1] and 90% with Lindernia pyxidaria [5]. Further, the “Weed suppression rate (%) Echinochloa crus-galli” value in the test with Echinochloa crus-galli [2] and with Echinochloa crus-galli [6] was 90% throughout. Moreover, the “Weed suppression rate (%) Monochoria vaginalis” value in the test with Monochoria vaginalis [3] and in the test with Monochoria vaginalis [7] was 80% throughout. The “Weed suppression rate (%) Scirpus juncoides” value with Scirpus juncoides [4] and in the test on Scirpus juncoides [8] was 90% each time.
